Test results: patent US11666561B2, “Compounds for use in regulating follicle maturation” (AARHUS UNIVERSITET, priority 2017, dated 2023)

System: primordial-to-primary follicle transition
Experiment: In vitro organ culture of mouse ovaries with compound, H&E histology and counting of primordial, primary and secondary follicles
Conditions: for effect on primordial-to-primary follicle transition / primordial follicle activation: in vitro cultured mouse ovaries, concentration not given
Description: Ovaries obtained from mice were washed twice with culture medium. Antagonists or agonists to be tested were dissolved in suitable solvents and added to the medium. As a control medium comprising solvent without the antagonist or agonist was used. One of the ovaries was cultured in a control medium and another was cultured with the antagonist or agonist. The tested antagonists or agonists and their concentrations are outlined in table 2.
Ovaries were incubated with antagonist at 37° C. and 5% CO2 for 24 and 96 hours, respectively (see table 3).
Cultures ovaries were fixed, embedded in paraffin and sliced microscopy. The sectioned ovaries were stained with hematoxylin and eosin (H&E) to visualize the morphology of the ovary by microscopy.
The number of primordial, primary and secondary follicles was determined, and it was determined whether the antagonist or agonist was capable of regulating folliculogenesis.
C57BL/6j×CBA F1 hybrid mice (Janvier Labs, France) were housed and bred in the animal facilities at Department of Biomedicine, Aarhus University. Animals were housed in a 12:12 h controlled light-dark environment and were provided with food and water ad libitum. 7-day-old female pups were used for the study.
Pups were sacrificed and ovaries were excised. Using a stereomicroscope MZ75 (Leica Microsystems, Germany), excess tissue was removed. During the dissection, ovaries were kept at 37° C. in culture medium: aMEM (Thermo Fisher) supplemented with 10% FBS (Thermo Fisher), 100 mIU/mL of FSH (Sigma-Aldrich), 100 IU/mL penicillin (Thermo Fisher), 100 μg/mL streptomycin (Thermo Fisher) and 1% Insulin-Transferrin-Selenium (Thermo Fisher). Isolated ovaries were transferred into well inserts (PET membrane ThinCert, 0.4 μm-pore size; Greiner bio-one) in 24-well plates (Tissue culture treated, cell culture plates; Costar). 200-300 μL of culture medium was added to the well below the insert and up to two ovaries were placed on the membrane of each insert. The culture medium was supplemented with different concentrations of the tested compounds; bpV(HOpic) (Sigma-Aldrich), Temsirolimus (Sigma-Aldrich), Ketotifen (Sigma-Aldrich), 3PO (Sigma-Aldrich), Dorsomorphin (Sigma-Aldrich), AICAR (Sigma-Aldrich), NCG (Sigma-Aldrich), and Dyphylline (Cayman Chemical). Up to six wells in the 24-well plate were used for inserts. Sterile dH2O was added to the rest of the wells to ensure humidity and reduce evaporation. The ovaries were cultured at 37° C., 5% CO2 for four days. 150 μL of medium was replaced every other day with fresh culture medium.
Ovaries kept in organ culture for four days were fixed for 24 hours in 4% paraformaldehyde solution at 4° C. After fixation, ovaries were dehydrated in ethanol series using 70%, 96% and 99.9% ethanol. Xylene was used as clearing agent before the ovaries were infiltrated in paraffin wax. 5 μm-sections of samples in paraffin were cut using a microtome (Cut 6062, SLEE medical, Germany). Paraffin sections were mounted on glass slides, paraffin was melted at 60° C., and the samples were stained with hematoxylin and eosin (using standard protocols).
The samples were deparaffinized by incubating in xylene for 2×15 min. and subsequently rehydrated in series of ethanol; 3×2 min. in 99.9% ethanol, 2 min. in 96% ethanol, and 2 min. in 70% ethanol. The samples were then rinsed in dH2O, stained in hematoxylin for 40 sec., rinsed in dH2O for 5 min., and stained in eosin for 46 sec. The samples were dehydrated in ethanol: 2×2 min. in 96% ethanol, 2×2 min in 99.9% ethanol, and finally cleared up in xylene for at least 30 min before mounting the samples using Eukitt mounting medium (Sigma-Aldrich) and cover glass.
The number of follicles at each developmental stage was counted using an inverted research microscope (DM14000B, Leica Microsystems, Germany). The follicles of every 3rd to 4th section of each ovary were counted and the distribution of follicles in the different stages in percentage was determined.

[1] = Table 1, effect with a figure cited
[2] = Table 2, effect with a figure cited
[3] = 30 μM 3PO, ovaries cultured four days, only healthy follicles counted

Compound | Effect (Table 1, marked (ongoing)) | Effect (Table 2, marked (ongoing)) | further results
COc1cc(N2CCC(N3CCN(C)CC3)CC2)ccc1Nc1nc2c(c(Nc3ccccc3S(=O)(=O)NC(C)C)n1)CCN2 [CT-707] | promotes | promotes | 
Cn1c(=O)n(-c2ccc(C(C)(C)C#N)cc2)c2c3cc(-c4cnc5ccccc5c4)ccc3ncc21 [Dactolisib, -methyl-2-(4-(3-methyl-2-oxo-8-(quinolin-3-yl)-2,3-dihydro-1H-imidazo[4,5-c]quinolin-1-yl)phenyl)propanenitrile] | promotes | promotes | 
O=C(O)c1cc(N(Cc2ccccc2O)Cc2cc(O)ccc2O)ccc1O [Lavendustin, 5-amino-((N-2,5-dihydroxybenzyl)-N′-2-hydroxybenzyl)aminosalicylic acid] | promotes | promotes | 
OCCN(CCO)c1nc(N2CCCCC2)c2nc(N(CCO)CCO)nc(N3CCCCC3)c2n1 [Dipyridamole, 2-[[2-[bis(2-hydroxyethyl)amino]-4,8-di(piperidin-1-yl)pyrimido[5,4-d]pyrimidin-6-yl]-(2-hydroxyethyl)amino]ethanol] | promotes | promotes | 
c1cc(-c2cnn3cc(-c4ccc(OCCN5CCCCC5)cc4)cnc23)ccn1 [Dorsomorphin] |  |  | primary follicles (5 μM dorsomorphin, four days): 12.78±2.23%; secondary follicles (5 μM dorsomorphin, four days): 15.87±3.06%; primordial follicles (5 μM dorsomorphin, four days, own control contaminated, compared with control of another experiment): 71.32±5.50%
COc1ncc(-c2nc3c(n2C(C)C)[C@H](c2ccc(Cl)cc2)N(c2cc(Cl)cn(C)c2=O)C3=O)c(OC)n1 [HDM201, (6S)-5-(5-chloro-1,2-dihydro-1-methyl-2-oxo-3-pyridinyl)-6-(4-chlorophenyl)-2-(2,4-dimethoxy-5-pyrimidinyl)-5,6-dihydro-1-(1-methylethyl)-Pyrrolo[3,4-d]imidazol-4(1H)-one] | promotes | promotes | 
CNC(=O)c1cc(Oc2ccc(NC(=O)Nc3ccc(Cl)c(C(F)(F)F)c3)cc2)ccn1 [BIIB022, 4-[4-[[4-chloro-3-(trifluoromethyl)phenyl]carbamoylamino]phenoxy]-N-methyl-pyridine-2-carboxamide] | promotes | promotes | 
CCN1[C@@H](C(=O)NC23CCC(C(=O)O)(CC2)CC3)[C@H](c2cccc(Cl)c2F)[C@]2(C(=O)Nc3cc(Cl)ccc32)C12CCCCC2 [APG-115] | promotes | promotes | 
Cn1c(=O)c2[nH]cnc2n(C)c1=O [Theophylline, 1,3-dimethyl-7H-purine-2,6-dione] | promotes | promotes | 
Nc1cc(C(F)(F)F)c(-c2cc(N3CCOCC3)nc(N3CCOCC3)n2)cn1 [Buparlisib, 5-(2,6-dimorpholinopyrimidin-4-yl)-4-(trifluoromethyl)pyridin-2-amine] | promotes | promotes | 
CC(=O)CCCCn1c(=O)c2c(ncn2C)n(C)c1=O [Pentoxifylline, 3,7-dimethyl-1-(5-oxohexyl)purine-2,6-dione] | promotes | promotes | 
COC(=O)C1=C(C)NC(C)=C([N+](=O)[O-])C1c1ccccc1C(F)(F)F (stereo not drawn) [BAY 1217389, methyl 2,6-dimethyl-5-nitro-4-[2-(trifluoromethyl)phenyl]-1,4-dihydropyridine-3-carboxylate] | promotes | promotes | 
Nc1ccn([C@@H]2O[C@H](CO)[C@@H](O)[C@@H]2O)c(=O)n1 [MK-8242, 4-amino-1-[(2R,3S,4S,5R)-3,4-dihydroxy-5-(hydroxymethyl)oxolan-2-yl]pyrimidin-2-one] | promotes | promotes | 
Cc1nccc2[nH]c(=O)ccc12 [Medorinone, 5-methyl-1H-1,6-naphthyridin-2-one] | promotes | promotes | 
CN1CCC(=C2c3ccccc3CC(=O)c3sccc32)CC1 [Ketotifen, 4,9-dihydro-4-(1-methyl-4-piper-idylidende)-10H-benzo(4,5)cyclohepta(1,2,b)thiophen-10-one] |  |  | less primary follicles than control (85 nM Ketotifen, 96 hours): ~44%; less secondary follicles than control (85 nM Ketotifen, 96 hours): ~65%; more primordial follicles than control (85 nM Ketotifen, 96 hours): approximately 9%; Effect [1]: inhibits follicle; Effect [2]: inhibits follicle; effect on primordial-to-primary follicle transition / primordial follicle activation: significantly more primordial follicles
Cc1c(NC(=O)OC[C@@H]2COCCN2)cn2ncnc(Nc3ccc4c(cnn4Cc4cccc(F)c4)c3)c12 [BMS-599626, [(3S)-morpholin-3-yl]methyl N-[4-[[1-[(3-fluorophenyl)methyl]indazol-5-yl]amino]-5-methylpyrrolo[2,1-f][1,2,4]triazin-6-yl]carbamate] | promotes | promotes | 
CN(c1ncccc1CNc1nc(Nc2ccc3c(c2)CC(=O)N3)ncc1C(F)(F)F)S(C)(=O)=O [PF-562271, N-methyl-N-[3-[[[2-[(2-oxo-1,3-dihydroindol-5-yl)amino]-5-(trifluoromethyl)pyrimidin-4-yl]amino]methyl]pyridin-2-yl]methanesulfonamide] | promotes | promotes | 
CC(C)[C@@H](CS(=O)(=O)C(C)C)N1C(=O)[C@@](C)(CC(=O)O)C[C@H](c2cccc(Cl)c2)[C@H]1c1ccc(Cl)cc1 [AMG-232, 2-[(3R,5R,6S)-5-(3-chlorophenyl)-6-(4-chlorophenyl)-3-methyl-1-[(2S)-3-methyl-1-propan-2-ylsulfonylbutan-2-yl]-2-oxopiperidin-3-yl]acetic acid] | promotes | promotes | 
NC(=O)N[C@@H](CCC(=O)O)C(=O)O [NCG, (2S)-2-(carbamoylamino)pentanedioic acid] |  |  | effect on follicle distribution (10, 20 and 30 μM NCG, 96 hours): has the potential to activate primordial follicle distribution; Effect [1]: promotesfollicle; Effect [2]: promotesfollicle
PDGF-AA: peptide, expressed in E coli, SEQ ID NO: 1, binds and activates PDGFRA | promotes | promotes | 
C=CCN(/C=C1/C(=O)O[C@H](COC)[C@@]2(C)C1=C(O)C(=O)C1=C2[C@H](OC(C)=O)C[C@]2(C)C(=O)CC[C@@H]12)CC=C [PX-866] | promotes | promotes | 
c1ccc2c(CCNc3ccc(Nc4ccncc4)cc3)c[nH]c2c1 [Serdemetan, 1-N-[2-(1H-indol-3-yl)ethyl]-4-N-pyridin-4-ylbenzene-1,4-diamine] | promotes | promotes | 
CO[C@H]1C[C@@H]2CC[C@@H](C)[C@@](O)(O2)C(=O)C(=O)N2CCCC[C@H]2C(=O)O[C@H]([C@H](C)C[C@@H]2CC[C@@H](OC(=O)C(C)(CO)CO)[C@H](OC)C2)CC(=O)[C@H](C)/C=C(\C)[C@@H](O)[C@@H](OC)C(=O)[C@H](C)C[C@H](C)/C=C/C=C/C=C/1C [Temsirolimus] |  |  | effect on primordial-to-primary follicle transition / primordial follicle activation: decrease the rate of primordial-to-primary transition
CC1(O)CC(c2nc(-c3ccc4ccc(-c5ccccc5)nc4c3)c3c(N)nccn23)C1 (stereo not drawn) [Linsitinib, 3-[8-amino-1-(2-phenylquinolin-7-yl)imidazo[1,5-a]pyrazin-3-yl]-1-methylcyclobutan-1-ol] | promotes | promotes | 
O=C(C=Cc1cccnc1)c1ccncc1 [3PO, 3-(3-pyridinyl)-1-(4-pyridinyl)-2-propen-1-one] |  |  | primary follicles [3]: 26.60±11.24%; primordial follicles [3]: 63.11±8.83%; secondary follicles [3]: 11.58±9.07%; health of follicles in treated ovaries (3PO treated ovaries): several of the follicles seemed atretic; Effect [1]: promotes; Effect [2]: promotes; effect on primordial-to-primary follicle transition / primordial follicle activation: promote primordial-to-primary transition
